Source: paper PMC6792352, “Limited Chemical Structural Diversity Found to Modulate Thyroid Hormone Receptor in the Tox21 Chemical Library” (Environmental Health Perspectives, 2019)
Counter-ions that a name gives are not always drawn.

Assay: in vitro
Conditions: rat, gh3-tre-luc cells

Compound	CC50 at 24 h (AC50 (uM) modified / 1000) [µM]	further results
CCOP(=O)(OCC)O/C(=C\Cl)c1ccc(Cl)cc1Cl [Chlorfenvinphos]	–	CC50 at 24 h (AC50 (uM) modified / 1000, Tox21_110001=Tox21_112069, viability, 1 nM T3 present, 24 h): > 50 µM; CC50 at 24 h (AC50 (uM) modified / 1000, Tox21_110001=Tox21_301573, viability, 1 nM T3 present, 24 h): > 90 µM
O=C(NC(=O)c1c(F)cccc1F)Nc1cc(Cl)c(Oc2ncc(C(F)(F)F)cc2Cl)c(Cl)c1 [Chlorfluazuron]	71.4	–
Nc1cnn(-c2ccccc2)c(=O)c1Cl [Chloridazon]	> 90	–
Oc1ccc(Cl)c2c1CCC2 [Chlorindanol]	> 50	–
C[N+](C)(C)CC[N+]1(C)Cc2c(Cl)c(Cl)c(Cl)c(Cl)c2C1 [Chlorisondamine chloride]	> 50	–
CC(=O)O[C@]1(C(C)=O)CC[C@H]2[C@@H]3C=C(Cl)C4=CC(=O)CC[C@]4(C)[C@H]3CC[C@@]21C [Chlormadinone acetate]	90.1	–
CC(=O)[C@@]1(O)CC[C@H]2[C@@H]3C=C(Cl)C4=CC(=O)CC[C@]4(C)[C@H]3CC[C@@]21C [Chlormadinone]	> 50	–
C[N+](C)(C)CCCl [Chlormequat chloride]	–	CC50 at 24 h (AC50 (uM) modified / 1000, Tox21_110001=Tox21_200065, viability, 1 nM T3 present, 24 h): > 90 µM
CN1C(=O)CCS(=O)(=O)C1c1ccc(Cl)cc1 (stereo not drawn) [Chlormezanone]	> 90	–
Cc1nc2ccccc2n1Cc1ccc(Cl)cc1 [Chlormidazole]	> 50	–
C[Si](Cl)(c1ccccc1)c1ccccc1 [Chloro(methyl)diphenylsilane]	> 90	–
O=CCCl [Chloroacetaldehyde]	> 90	–
O=C(O)CCl [Chloroacetic acid]	–	CC50 at 24 h (AC50 (uM) modified / 1000, Tox21_110001=Tox21_201114, viability, 1 nM T3 present, 24 h): > 90 µM
N#CCCl [Chloroacetonitrile]	> 100	–
O=C(Cl)CCl [Chloroacetyl chloride]	> 90	–
Cl/C=C\C[N+]12CN3CN(CN(C3)C1)C2 [Chloroallyl methenamine chloride]	> 90	–
Clc1ccccc1 [Chlorobenzene]	> 90	–
CCOC(=O)C(O)(c1ccc(Cl)cc1)c1ccc(Cl)cc1 [Chlorobenzilate]	–	CC50 at 24 h (AC50 (uM) modified / 1000, Tox21_110001=Tox21_201753, viability, 1 nM T3 present, 24 h): 58.2 µM; CC50 at 24 h (AC50 (uM) modified / 1000, Tox21_110001=Tox21_300594, viability, 1 nM T3 present, 24 h): 54.6 µM
O=C(O)CC(Cl)C(=O)O (stereo not drawn) [Chlorobutanedioic acid]	> 90	–
ClC(Br)Br [Chlorodibromomethane]	–	CC50 at 24 h (AC50 (uM) modified / 1000, Tox21_110001=Tox21_200153, viability, 1 nM T3 present, 24 h): > 90 µM

Compound	CC50 at 24 h (AC50 (uM) modified / 1000) [µM]	further results
ClC(Cl)Cl [Chloroform]	> 90	–
O=C(/C=C/c1ccc(O)c(O)c1)O[C@@H]1C[C@](O)(C(=O)O)C[C@@H](O)[C@H]1O [Chlorogenic acid]	> 90	–
COCCl [Chloromethyl methyl ether]	–	CC50 at 24 h (AC50 (uM) modified / 1000, Tox21_110001=Tox21_201575, viability, 1 nM T3 present, 24 h): > 90 µM; CC50 at 24 h (AC50 (uM) modified / 1000, Tox21_110001=Tox21_302939, viability, 1 nM T3 present, 24 h): > 30 µM
COc1cc(Cl)c(OC)cc1Cl [Chloroneb]	–	CC50 at 24 h (AC50 (uM) modified / 1000, Tox21_110001=Tox21_300739, viability, 1 nM T3 present, 24 h): > 90 µM
O=C1c2ccccc2C(=O)C1C(=O)C(c1ccccc1)c1ccc(Cl)cc1 (stereo not drawn) [Chlorophacinone]	–	CC50 at 24 h (AC50 (uM) modified / 1000, Tox21_110001=Tox21_301565, viability, 1 nM T3 present, 24 h): 42.3 µM
CCN(CC)CCOC(=O)c1ccc(N)cc1Cl [Chloroprocaine hydrochloride]	> 50	–
CC(C)OC(=O)C(O)(c1ccc(Cl)cc1)c1ccc(Cl)cc1 [Chloropropylate]	–	CC50 at 24 h (AC50 (uM) modified / 1000, Tox21_110001=Tox21_301914, viability, 1 nM T3 present, 24 h): 74.2 µM
CN(C)CCN(Cc1ccc(Cl)cc1)c1ccccn1 [Chloropyramine hydrochloride]	10.2	–
NS(=O)(=O)c1cc2c(cc1Cl)N=CNS2(=O)=O [Chlorothiazide]	> 90	–
C[Si](C)(C)Cl [Chlorotrimethylsilane]	> 90	–
Oc1c(Cl)cc(Cl)c2cccnc12 [Chloroxine]	5.91	–
CN(C)C(=O)Nc1ccc(Oc2ccc(Cl)cc2)cc1 [Chloroxuron]	> 90	–
NC(=O)OCC(O)COc1ccc(Cl)cc1 (stereo not drawn) [Chlorphenesin carbamate]	> 20	–
OCC(O)COc1ccc(Cl)cc1 (stereo not drawn) [Chlorphenesin]	> 50	–
CC(C)(N)Cc1ccc(Cl)cc1 [Chlorphentermine hydrochloride]	–	CC50 at 24 h (AC50 (uM) modified / 1000, Tox21_110001=Tox21_111804, viability, 1 nM T3 present, 24 h): > 50 µM
CN(C)CCCN1c2ccccc2Sc2ccc(Cl)cc21 [Chlorpromazine hydrochloride]	10.6	–
CCCNC(=O)NS(=O)(=O)c1ccc(Cl)cc1 [Chlorpropamide]	> 90	–
CC(C)OC(=O)Nc1cccc(Cl)c1 [Chlorpropham]	> 90	–
CN(C)CC/C=C1/c2ccccc2Sc2ccc(Cl)cc21 [Chlorprothixene]	11	–
